According to patent publication US20260248833A1, “PYRIMIDINE NUCLEOSIDE TREATMENTS” (The Children`s Medical Center Corporation, priority 2022, published 2026):
Entries after “also recorded” stand apart in the source; their conditions may differ.

Legend:
[1] = system: TERC−/− 293T cells stably expressing dmDNK; test: Telomere DNA content blot in dmDNK expressing cells; type: cell-based, human; settings: TERT and TERC transfected, nucleoside 24-30 hrs, versus eGFP control
From the text: Combining thymidine treatment with expression of a nucleoside kinase to improve efficiency of nucleoside uptake and thereby promote telomere lengthening. combining nucleoside treatment with the expression of TK1, or the deoxynucleoside kinase from Drosophila (dmDNK), either of which can be delivered via mRNA. See FIG. 29A-B. TERC-/- 293T cells stably expressing dmDNK or eGFP (control) were transfected with vectors to express […], then cultured in the indicated doses of nucleoside, followed by analysis of telomere DNA content via blotting and detection with a complementary oligonucleotide probe.

[2] = system: iPSCs from a healthy donor; test: TRF Southern blot telomere length, wildtype iPSCs; type: cell-based, human
Description: (§1) Cell culture: K562 cells (ATCC) were grown in RPMI1 1640 (Gibco) media supplemented with 10% fetal bovine serum. 293T cells (ATCC) were grown in DMEM (Gibco) supplemented with 10% fetal bovine serum, and were subcultured using 0.05% trypsin (Gibco). iPSCs were derived, characterized and cultured as previously described. iPSCs were grown in Essential 8 Media (Life Technologies) supplemented with the ROCK inhibitor Y271632 (Stem Cell Technologies) at 10 μM on plates coated with hES qualitied Matrigel matrix (Corning) and were subcultured using Accutase (Stem Cell Technologies).
(§2) Terminal Restriction Fragment Length Analysis: genomic DNA was isolated from cells using the Invitrogen Purelink Genomic DNA mini kit (Invitrogen). 1-3 μg of gDNA was digested with RsaI and HinfI for 2-3 hrs at 37° C. and loaded onto a 0.6% agarose gel followed by Southern blotting using the Telotaggg Telomere Length Assay Kit (Roche). Quantification was performed using the WALTER webtool.

[3] = system: pCHK1-S345 and pRPA32-S33; test: Immunoblot of replication stress signaling in iPSCs; type: cell-based, human; settings: iPSCs treated with dT
293T cells [4] = test: Terminal restriction fragment (TRF) Southern blot telomere length, 293T cells; type: cell-based, human
Description: as §1, §2

293T cells [5] = test: Cell cycle analysis by DAPI staining and flow cytometry, 293T cells; type: cell-based, human
Description: Cell cycle analysis by DNA content staining and flow cytometry: Cells were prepared either for flow-FISH staining as described (for experiments in FIG. 5) or by ethanol fixation (for data in FIG. 6, 27), followed by rehydration and counterstaining using DAPI (BD Biosciences) and analysis on an LSR-II or Fortessa analyzer (BD Biosciences) using BD FACSDiva 8.0.2. Cells were gated on FSC/SSC as described in FIG. 6d using FlowJo V10.7.1.

[6] = system: pCHK1-S345 and pRPA32-S33; test: Immunoblot of replication stress signaling in super-telomerase cells; type: cell-based, human
telomerase = test: TRAP assay on lysates from 293T cells treated with dT; type: cell-based, human; settings: 293T cells treated with or without 100 μM dT, 3 days
Description: TRAP assay: cell extracts for TRAP assays were made using TRAPeze™1×CHAPS Lysis Buffer (Roche) supplemented with RNASEin (Promega). Standard TRAP reactions (in FIG. 25a) were performed as described, with cell input normalized across samples using the Bio-Rad DC assay. TRAP assays were modified to enable unique dNTP concentrations in telomerase reactions from PCR reactions (FIG. 25) as follows: reactions were assembled with 1×TRAP buffer (20 mM Tris-HCl, pH 8.3; 1.5 mM MgCl2; 63 mM KCl; 0.05% Tween 20; 1 mM EGTA), TS, ACX, TNST, and NT primers as described (see Primers/Oligos below), dNTPs were added at physiologic concentrations (dATP 24 μM, dGTP 5.2 μM, dCTP 29 μM, dTTP 37 μM) unless otherwise mentioned in the figure legend, followed by telomerase extracts. TRAP assays were modified to detect GGAAAG repeats using the following primers: TS GGAAAG, TNST GGAAAG, ACX GGAAAG, and NT (see Primers/Oligos below). After addition of telomerase extracts, reactions were incubated for 30 minutes at 30° C. followed by heat inactivation at 95° C. for 5 minutes. […] Images were quantified for a given lane using ImageJ by measuring the signal of the telomerase repeat sized products divided by the signal of the internal control band for the lane, normalized to the same ratio for the untreated sample(s) in a given experiment. […]

primary fibroblasts = test: Telomere lengthening from dT with TERT expression in primary fibroblasts; type: cell-based; settings: primary fibroblasts (FIG. 30A)
[7] = system: iPSCs derived from TBD patients; test: TRF Southern blot telomere length, TBD patient-derived iPSCs; type: cell-based, human; settings: for telomere length increase / telomere elongation: 50 μM dT for three weeks; for telomere elongation: panel of TBD patient iPSCs (TERC, DKC1, PARN)
Description: as §1, §2

TERC-null 293T cells = test: TRF Southern blot telomere length, telomerase-negative TERC-null 293T cells; type: cell-based, human; settings: 100 μM thymidine for 7 days
Description: as §1, §2

[8] = cited from earlier work
[9] = system: mouse model of TK2 deficiency; settings: 520 mg/kg/day of dT; cited from earlier work

## Cc1cn([C@H]2C[C@H](O)[C@@H](CO)O2)c(=O)[nH]c1=O [dT, 1-[(2R,4S,5R)-4-Hydroxy-5-(hydroxymethyl)oxolan-2-yl]-5-methylpyrimidine-2,4 (1H,3H)-dione]
[1]
  telomere lengthening with expression of a nucleoside kinase (dmDNK): Enhanced telomere lengthening from the combination of expressing a nucleoside kinase with dT treatment
[2]; 100 μM dT, three weeks
  telomere elongation: ~ 2000 bp
[2]; dT for three weeks
  telomere elongation: significantly elongated telomeres
[3]
  replication stress signaling: no indication of replication stress signaling
293T cells [4]
  doses leading to robust telomere elongation in less than 10 days: ≥ 50 µM
293T cells [4]; 50 μM dT for eight days, without SAMHD1 knockdown
  telomere lengthening from dT treatment: ~ 470 bp
293T cells [4]; 100 μM dT withdrawn after 15 days
  telomere elongation after withdrawal of dT: aborted telomere elongation
293T cells [4]; 100 μM dT, over 33 days
  telomere length, time-course of dT treatment: gradually and continually increased telomere length
293T cells [4]; 100 μM of the indicated deoxynucleoside(s) for 9 days
  telomere length: rapidly and robustly increases telomere length; also recorded: promoted telomere lengthening, as did dT alone; also recorded: necessary and sufficient for telomere lengthening
293T cells [4]; 20 or 40 μM dT, 10 days
  telomere length: minimal telomere length changes
293T cells [4]; 20 or 40 μM dT, 34 days
  telomere length: robust telomere lengthening
293T cells [4]; 100 micromolar thymidine for 15 days then removed
  persistence of long telomere length after dT withdrawal: more than two weeks
293T cells [4]; 10 days
  telomere lengthening following dT with dNTPase-deficient SAMHD1 H215A or K312A variants: could not restrict telomere lengthening following dT supplementation
293T cells [4]; 10 days, compared to EGFP control
  telomere lengthening following dT treatment with overexpression of wild-type SAMHD1: reduced telomere lengthening following dT treatment
293T cells [4]; 10 days, three manufacturers, each of >98% purity
  telomere elongation with dT from different manufacturers: resulted in telomere elongation similarly
293T cells [4]; CRISPR/Cas9 TK1 edited
  telomere lengthening upon dT treatment in TK1-edited cells: complete abrogation of the telomere lengthening; also recorded: prevented telomere lengthening following dT treatment
293T cells [4]; CRISPR/Cas9 TK2 edited
  telomere lengthening upon dT treatment in TK2-edited cells: no difference in telomere length increases compared to control AAVS1-targeted cells; also recorded: TK2 knockout did not
293T cells [4]; SAMHD1 targeting shRNA, 50 μM dT for eight days
  telomere lengthening, combined SAMHD1 knockdown and dT treatment: ~ 800 bp
293T cells [4]; at 100 μM dT
  telomere elongation, increase of base pairs (bp) per day: 96 bp per day
293T cells [4]; at […] dT
  telomere elongation, increase of base pairs (bp) per day: 60 bp per day
293T cells [4]; baseline 16 μM dT, plus 100 μM additional dT or 1 mM dU, 10 days
  telomere lengthening in TYMS-knockout cells: responsive to dT to promote telomere lengthening
293T cells [5]
  dT doses with no detectable changes in cell cycle distribution: below 100 μM
[6]; 40 μM dT
  replication stress signaling at the telomere-active dose: far below doses that induce replication stress signaling
[6]; highest doses, 30 hours
  replication stress signaling: induced similar levels of replication stress signaling
telomerase
  telomerase activity in lysates (abundance of active telomerase enzymes): no difference in telomerase activity
Primary fibroblasts
  telomere lengthening from dT with expression of TERT: expression of TERT can increase telomere lengthening from dT
[7]; PARN deficient iPSCs
  telomere length increase: 570 bp
[7]; TBD patient-derived iPSCs with two different mutations, 100 μM dT for 22 days (FIG. 13A)
  telomere length: increased telomere length
[7]; TERC deficient iPSCs
  telomere length increase: 640 bp
[7]
  telomere elongation: produced telomere elongation in all cases
[7]; listed as thymidine
  telomere elongation: hundreds of basepairs
TERC-null 293T cells
  telomere length: failed to drive detectable telomere elongation
[8]
  aqueous solubility: about 50 mg/ml
[9]
  lifespan: increased lifespan in a mouse model of TK2 deficiency
